Measurements: article PMC5920042, “KH176 Safeguards Mitochondrial Diseased Cells from Redox Stress-Induced Cell Death by Interacting with the Thioredoxin System/Peroxiredoxin Enzyme Machinery” (Scientific Reports, 2018)

Key:
human Prdx2 = molecular target: T1, human Prdx2 (Homo sapiens, UniProt P32119); test: Surface Plasmon Resonance binding; conditions: immobilized Prdx2, SPR, 0.31-5.0 µM
T1 construct: purchased Novus Biological NBC1-25855
T1 sequence (P32119 1-198): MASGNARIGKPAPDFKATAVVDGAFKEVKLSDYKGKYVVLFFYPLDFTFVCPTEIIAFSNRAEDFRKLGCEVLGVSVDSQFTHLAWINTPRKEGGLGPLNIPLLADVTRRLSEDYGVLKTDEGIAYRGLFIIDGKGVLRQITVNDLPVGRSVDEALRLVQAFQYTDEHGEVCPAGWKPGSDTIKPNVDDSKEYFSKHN
Experimental: Prior to protein immobilization all proteins were dialyzed against HBS-E (10 mM Hepes, 150 mM NaCl, 3 mM EDTA) buffer that was previously filtered through a 0.45 µM membrane using dialyze slide according to the manufacturer instruction. Human recombinant proteins peroxiredoxin 2 (Novus Biological NBC1-25855) and CCDC101 (Abcam Ab124547) were immobilized on CM5 (carboxymethylated dextran covalently attached to a gold surface) using the amine coupling method according to manufacturer’s recommendation (Biacore, GE Healthcare). Briefly the CM5 surface was activated with the mixture of EDC/NHS. Recombinant proteins at dilution 1 µg/ml in a corresponding buffer i.e. Peroxiredoxin 2 and CCDC101 in sodium acetate buffer 100 mM (pH 4.9). The control channel was activated with EDC/NHS. All channels were thereafter saturated with 0.1 M ethanolamine solution. KH176 andKH176m were solubilized in HBSS at stock solution 1 mM. They were thereafter further diluted in HBSS to final concentrations 0.31e-6M, 0.62e-6M, 1.25e-6M, 2.5e-6M and 5.0e-6M and injected over the flow cells at a flow rate equal to […] for 2 min, followed by a dissociation phase of 4 min. The sensor chip surface was regenerated with 1 mM HCl. The specific binding profiles were obtained after subtracting the response signal from the control empty channel and from blank-buffer injection. The specific binding was calculated using Biaeval 3 software (Biacore, GE Healthcare) with the postulate of 1:1 ligand/analyte interaction. Based on the Chi^2 value in regard to the Rmax (less than 10%) and the difference interval ±2.5 RU theoretic fitting compared to experimental results, best fitting algorithm between Langmuir or drifting base line was applied.

[1] = test system: primary human skin fibroblasts; test: Cellular superoxide detection by HEt oxidation; format: cell-based; conditions: 24 h compound
Experimental: The cells were seeded at a density of 3 × 10^3 cells/well into 96-wells black plates. After 24 h, the cells were incubated with different amounts of KH176(m) for 24 h. For the cellular superoxide measurements cells were then washed with M199 without phenol red and incubated with HEt (#D11347, ThermoFisher) in this same medium for 10 minutes. […] Total cellular fluorescence per well was normalized on the incubation with the probe but without compound (vehicle set as 100%). Experiments were performed at least three times with 3 wells per experiment.

[2] = Single dose pharmacokinetics and bioavailability study; format: in vivo, male Sprague Dawley rats; conditions: male, Sprague Dawley, rat, plasma
Experimental: (§1) Pharmacokinetics and toxicokinetics measurements were performed by the commercial Contract Research Organizations Sai Life Sciences and WuXi AppTec, respectively, according to their standard protocols and in accordance with relevant guidelines and regulations. C57 BL/6 mice, Sprague Dawley rats, and Beagle dogs were studied.

[3] = 28-day repeat oral dose toxicity study, toxicokinetics; format: in vivo, Sprague Dawley rats; conditions: Sprague Dawley, rat, plasma, po; for AUC(0-t): read-out: AUC0–24 h; for Cmax: read-out: Cmax
Experimental: as §1

P4 cell line = test: GSH measurements (GSH-Glo) under BSO; format: cell-based, human; conditions: increasing BSO 24 h, 3 µM compound
Experimental: Cells were seeded at a density of 4 × 10^3 cells/well into 96-wells white plates (#655098, Greiner Bio-one). After 24 h the cells were treated with semi-logarithmic dilutions of BSO up to a concentration of 100 µM alone or in co-incubation with a fixed amount of the test compound. 24 h after the treatment, GSH levels were measured with the GSH-Glo™ Glutathione Assay (# V6911, Promega) according to the manufacturer instructions. Luminescence was measured on a scanning microplate reader (BMG FLUOstar Omega).

[4] = test system: primary human skin fibroblasts; test: CumOOH induced lipid peroxidation (bodipy 581/591 C11); format: cell-based; conditions: Homo sapiens, Skin fibroblast; 30 µM cumOOH, bodipy 581/591 C11
Experimental: The cells were seeded at a density of 3 × 10^3 cells/well into 96-wells black plates. After 24 h, the cells were coincubated with 500 nM bodipy 581/591 C11 (#D3861, Thermo Fisher) and different amounts of KH compound in M199 without phenol red. This medium was used in all subsequent washes and incubations. After 30 min. incubation the cells were washed twice and subsequently incubated with 30 μM cumene hydroperoxide (cumOOH). For background subtractions cells with the dye but without cumOOH were used. After 30 minutes incubation and two washes oxidized bodipy 581/591 C11 was quantified on an automated bioimager (BD Pathway 855), by using a 20x objective and Ex. 488/10 nm, Em. FURA/FITC. Total cellular fluorescence per well was normalized on the number of cellular pixels/well and normalized on the incubation with probe and cumOOH but without compound (vehicle set as 100%). Experiments were performed at least three times with 3 wells per experiment.

[5] = female, 25 mg/kg, KH176 25 mg/kg/dose BID oral, F, Day 1, plasma
[6] = female, 25 mg/kg, KH176 25 mg/kg/dose BID oral, F, Day 28, plasma
[7] = female, 75 mg/kg, KH176 75 mg/kg/dose BID oral, F, Day 1, plasma
[8] = female, 75 mg/kg, KH176 75 mg/kg/dose BID oral, F, Day 28, plasma
[9] = female, 250 mg/kg, KH176 250 mg/kg/dose BID oral, F, Day 1, plasma
[10] = female, 250 mg/kg, KH176 250 mg/kg/dose BID oral, F, Day 28, plasma
[11] = male, 25 mg/kg, KH176 25 mg/kg/dose BID oral, M, Day 1, plasma
[12] = male, 25 mg/kg, KH176 25 mg/kg/dose BID oral, M, Day 28, plasma
[13] = male, 75 mg/kg, KH176 75 mg/kg/dose BID oral, M, Day 1, plasma
[14] = male, 75 mg/kg, KH176 75 mg/kg/dose BID oral, M, Day 28, plasma
[15] = male, 250 mg/kg, KH176 250 mg/kg/dose BID oral, M, Day 1, plasma
[16] = male, 250 mg/kg, KH176 250 mg/kg/dose BID oral, M, Day 28, plasma

In the case of `Cc1c(C)c2c(c(C)c1O)CC[C@@](C)(C(=O)N[C@@H]1CCCNC1)O2.Cl` [KH176, (S)-6-hydroxy-2,5,7,8-tetramethyl-N-((R)-piperidin-3-yl)chroman-2-carboxamide hydrochloride], the “Binding to Prdx2” value (human Prdx2) is reported as “not”, the “Effect on basal cellular superoxide levels (HEt)” value [1] is reported as “no effect” and the AUC(0-inf) ([2]; iv, KH176 2 mg/kg i.v.) is reported as 518 ng·h/mL. For the same molecule, the AUC(0-t) ([2]; iv, KH176 2 mg/kg i.v.) was 510 ng·h/mL, the clearance ([2]; iv, KH176 2 mg/kg i.v.) was 64.6 mL/min/kg and the half-life ([2]; iv, KH176 2 mg/kg i.v.) was 2.6 h. It also gave a C0 ([2]; iv, KH176 2 mg/kg i.v., back extrapolated) of 344 ng/mL, a Vd ([2]; iv, KH176 2 mg/kg i.v., read-out: Vss) of 7 L/kg and a bioavailability ([2]; oral, 10 mg/kg p.o. vs 2 mg/kg i.v., from AUClast, read-out: F (oral bioavailability)) of 74%. It also gave an AUC(0-inf) ([2]; po, KH176 10 mg/kg p.o.) of 1930 ng·h/mL, an AUC(0-t) ([2]; po, KH176 10 mg/kg p.o.) of 1870 ng·h/mL and a Cmax ([2]; po, KH176 10 mg/kg p.o.) of 594 ng/mL. It also gave a Tmax ([2]; po, KH176 10 mg/kg p.o., read-out: Tmax) of 0.67 h, a half-life [3, 5] of 2.6 h and an AUC(0-t) [3, 5] of 12500 ng·h/mL. For the same molecule, the Cmax [3, 5] was 1360 ng/mL, the half-life [3, 6] was 3.2 h and the AUC(0-t) [3, 6] was 19000 ng·h/mL. For the same molecule, the Cmax [3, 6] was 2270 ng/mL, the half-life [3, 7] was 8.4 h and the AUC(0-t) [3, 7] was 42400 ng·h/mL. The Cmax [3, 7] was 3050 ng/mL, the half-life [3, 8] was 6 h and the AUC(0-t) [3, 8] was 76900 ng·h/mL. It also gave a Cmax [3, 8] of 5340 ng/mL, an AUC(0-t) [3, 9] of 104000 ng·h/mL and a Cmax [3, 9] of 6970 ng/mL. The AUC(0-t) [3, 10] was 243000 ng·h/mL, the Cmax [3, 10] was 13300 ng/mL and the half-life [3, 11] was 2.4 h. The AUC(0-t) [3, 11] was 10500 ng·h/mL, the Cmax [3, 11] was 979 ng/mL and the half-life [3, 12] was 5.6 h. The AUC(0-t) [3, 12] was 15600 ng·h/mL, the Cmax [3, 12] was 1600 ng/mL and the half-life [3, 13] was 4.5 h. For the same molecule, the AUC(0-t) [3, 13] was 33100 ng·h/mL, the Cmax [3, 13] was 2860 ng/mL and the AUC(0-t) [3, 14] was 46200 ng·h/mL. The Cmax [3, 14] was 4210 ng/mL, the AUC(0-t) [3, 15] was 94000 ng·h/mL and the Cmax [3, 15] was 5890 ng/mL. It also gave a half-life [3, 16] of 8.3 h, an AUC(0-t) [3, 16] of 157000 ng·h/mL and a Cmax [3, 16] of 11200 ng/mL. For the same molecule, the “GSH level under BSO” value (P4 cell line) was “remained unaffected” and the IC50 [4] was 64 µM.
